Reference: US9833497B2, “Human originated EGF domain proteins and use of the same” (CHENGDU SOURCEBIO LIMITED-LIABILITY COMPANY, priority 2013, dated 2017)

Key:
Format in all cases: cell-based
Moraxella catarrhalis = assay: MIC against Gram-negative bacteria: Moraxella catarrhalis
Method in brief: (§1)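 The recombinant human-originated EGF domain proteins were serially diluted two-fold against bacteria at 5×10^5 CFU/mL in LB medium. After shaken incubation at 37° C, the lowest concentration with no bacterial growth was recorded as the MIC.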

Aeromonas hydrophila = assay: MIC against Gram-negative bacteria: Aeromonas hydrophila
Method in brief: as §1

Citrobacter diversus = assay: MIC against Gram-negative bacteria: Citrobacter diversus
Method in brief: as §1

Enterobacter cloacae = assay: MIC against Gram-negative bacteria: Enterobacter cloacae
Method in brief: as §1

E. coli DH5α = assay: Antibacterial activity: MIC and growth curve against E. coli DH5α in 96-well plate; details: minimal inhibitory concentration against E. coli DH5α; 96-well plate, 5×10^5 CFU/mL, 37° C., judged after 8 h
Method in brief: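 Log-phase bacteria (OD600 ~0.5) resuspended in LB at 5×10^5 CFU/mL, exposed to recombinant protein at 50, 25, 12.5 μg/mL final in triplicate, 37 °C shaking at 175 rpm. OD600 read every 30 min; MIC is lowest concentration showing no growth.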

Pseudomonas aeruginosa = assay: MIC against Gram-negative bacteria: Pseudomonas aeruginosa
Method in brief: as §1

Serratia marcescens = assay: MIC against Gram-negative bacteria: Serratia marcescens
Method in brief: as §1

Proteus vulgaris = assay: MIC against Gram-negative bacteria: Proteus vulgaris
Method in brief: as §1

Proteus mirabilis = assay: MIC against Gram-negative bacteria: Proteus mirabilis
Method in brief: as §1

Klebsiella pneumonia = assay: MIC against Gram-negative bacteria: Klebsiella pneumonia
Method in brief: as §1

E. coli BL21 = assay: MIC against Gram-negative bacteria: E. coli BL21
Method in brief: as §1

[1] = 96-well plate, 5×10^5 CFU/mL, 37° C., 10 h
[2] = Moraxella catarrhalis, 96-well plate, 5×10^5 CFU/mL, 37° C., 10 h
[3] = Aeromonas hydrophila, 96-well plate, 5×10^5 CFU/mL, 37° C., 10 h
[4] = Citrobacter diversus, 96-well plate, 5×10^5 CFU/mL, 37° C., 10 h
[5] = Enterobacter cloacae, 96-well plate, 5×10^5 CFU/mL, 37° C., 10 h
[6] = Pseudomonas aeruginosa, 96-well plate, 5×10^5 CFU/mL, 37° C., 10 h
[7] = Serratia marcescens, 96-well plate, 5×10^5 CFU/mL, 37° C., 10 h
[8] = Proteus vulgaris, 96-well plate, 5×10^5 CFU/mL, 37° C., 10 h
[9] = Proteus mirabilis, 96-well plate, 5×10^5 CFU/mL, 37° C., 10 h
[10] = Klebsiella pneumonia, 96-well plate, 5×10^5 CFU/mL, 37° C., 10 h
[11] = E. coli BL21, 96-well plate, 5×10^5 CFU/mL, 37° C., 10 h
[12] = M. catarrhalis, 10 h cultivation at 37° C., 5×10^5 CFU/mL
[13] = A. hydrophila, 10 h cultivation at 37° C., 5×10^5 CFU/mL
[14] = C. diversus, 10 h cultivation at 37° C., 5×10^5 CFU/mL
[15] = E. cloacae, 10 h cultivation at 37° C., 5×10^5 CFU/mL
[16] = P. aeruginosa, 10 h cultivation at 37° C., 5×10^5 CFU/mL
[17] = S. marcescens, 10 h cultivation at 37° C., 5×10^5 CFU/mL
[18] = P. vulgaris, 10 h cultivation at 37° C., 5×10^5 CFU/mL
[19] = P. mirabilis, 10 h cultivation at 37° C., 5×10^5 CFU/mL
[20] = K. pneumonia, 10 h cultivation at 37° C., 5×10^5 CFU/mL
[21] = E. coli BL21, 10 h cultivation at 37° C., 5×10^5 CFU/mL

Substance: PRT1481 (PVNLCKPSPCMNEGSCVLQNGSYRCKCRDGWEGPHCE; listed as Homo sapiens)
- MIC against M. catarrhalis (Moraxella catarrhalis; Moraxella catarrhalis, 5×10^5 CFU/mL, 10 h cultivation at 37° C.): 50 µg/mL
- MIC against A. hydrophila (Aeromonas hydrophila; Aeromonas hydrophila, 5×10^5 CFU/mL, 10 h cultivation at 37° C.): 25 µg/mL
- MIC against C. diversus (Citrobacter diversus; Citrobacter diversus, 5×10^5 CFU/mL, 10 h cultivation at 37° C.): 12.5 µg/mL
- MIC against E. cloacae (Enterobacter cloacae; Enterobacter cloacae, 5×10^5 CFU/mL, 10 h cultivation at 37° C.): 50 µg/mL
- MIC (E. coli DH5α): 12.5 µg/mL
- MIC against P. aeruginosa (Pseudomonas aeruginosa; Pseudomonas aeruginosa, 5×10^5 CFU/mL, 10 h cultivation at 37° C.): 50 µg/mL
- MIC against S. marcescens (Serratia marcescens; Serratia marcescens, 5×10^5 CFU/mL, 10 h cultivation at 37° C.): 25 µg/mL
- MIC against P. vulgaris (Proteus vulgaris; Proteus vulgaris, 5×10^5 CFU/mL, 10 h cultivation at 37° C.): 50 µg/mL
- MIC against P. mirabilis (Proteus mirabilis; Proteus mirabilis, 5×10^5 CFU/mL, 10 h cultivation at 37° C.): 12.5 µg/mL
- MIC against K. pneumonia (Klebsiella pneumonia; Klebsiella pneumonia, 5×10^5 CFU/mL, 10 h cultivation at 37° C.): 12.5 µg/mL
- MIC against E. coli BL21 (E. coli BL21; E. coli BL21, 5×10^5 CFU/mL, 10 h cultivation at 37° C.): 25 µg/mL

Substance: PRT699 (DVDECSSGAPPCGPHGHCTNTEGSFRCSCAPGYRAPSGRPGPCA; listed as Homo sapiens)
- MIC M. catarrhalis (Moraxella catarrhalis; [1]): 25 µg/mL
- MIC A. hydrophila (Aeromonas hydrophila; [1]): 12.5 µg/mL
- MIC C. diversus (Citrobacter diversus; [1]): 50 µg/mL
- MIC E. cloacae (Enterobacter cloacae; [1]): 50 µg/mL
- MIC (E. coli DH5α): 50 µg/mL
- MIC P. aeruginosa (Pseudomonas aeruginosa; [1]): 12.5 µg/mL
- MIC S. marcescens (Serratia marcescens; [1]): 50 µg/mL
- MIC P. vulgaris (Proteus vulgaris; [1]): 25 µg/mL
- MIC P. mirabilis (Proteus mirabilis; [1]): 12.5 µg/mL
- MIC K. pneumonia (Klebsiella pneumonia; [1]): 25 µg/mL
- MIC E. coli BL21 (E. coli BL21; [1]): 25 µg/mL

Substance: PRT1498 (PESPCLQNPCQNDGQCREQGATFTCECEVGYGGGLCM; listed as Homo sapiens)
- MIC (μg/mL) M. catarrhalis (Moraxella catarrhalis; [2]): 12.5 µg/mL
- MIC (μg/mL) A. hydrophila (Aeromonas hydrophila; [3]): 12.5 µg/mL
- MIC (μg/mL) C. diversus (Citrobacter diversus; [4]): 50 µg/mL
- MIC (μg/mL) E. cloacae (Enterobacter cloacae; [5]): 50 µg/mL
- MIC (E. coli DH5α): 50 µg/mL
- MIC (μg/mL) P. aeruginosa (Pseudomonas aeruginosa; [6]): 12.5 µg/mL
- MIC (μg/mL) S. marcescens (Serratia marcescens; [7]): 12.5 µg/mL
- MIC (μg/mL) P. vulgaris (Proteus vulgaris; [8]): 12.5 µg/mL
- MIC (μg/mL) P. mirabilis (Proteus mirabilis; [9]): 50 µg/mL
- MIC (μg/mL) K. pneumonia (Klebsiella pneumonia; [10]): 12.5 µg/mL
- MIC (μg/mL) E. coli BL21 (E. coli BL21; [11]): 25 µg/mL

Substance: PRT1277 (ETCAVNNGGCDSKCHDAATGVHCTCPVGFMLQPDRKTCK; listed as Homo sapiens)
- MIC against M. catarrhalis (Moraxella catarrhalis; [2]): 25 µg/mL
- MIC against A. hydrophila (Aeromonas hydrophila; [3]): 50 µg/mL
- MIC against C. diversus (Citrobacter diversus; [4]): 12.5 µg/mL
- MIC against E. cloacae (Enterobacter cloacae; [5]): 12.5 µg/mL
- MIC (E. coli DH5α): 12.5 µg/mL
- MIC against P. aeruginosa (Pseudomonas aeruginosa; [6]): 12.5 µg/mL
- MIC against S. marcescens (Serratia marcescens; [7]): 12.5 µg/mL
- MIC against P. vulgaris (Proteus vulgaris; [8]): 25 µg/mL
- MIC against P. mirabilis (Proteus mirabilis; [9]): 12.5 µg/mL
- MIC against K. pneumonia (Klebsiella pneumonia; [10]): 50 µg/mL
- MIC against E. coli BL21 (E. coli BL21; [11]): 50 µg/mL

Substance: PRT493 (CDCPHTQNTCDPETGECVCPPHTQGVKCEECEDGHWGYDAEVGCQA; listed as Homo sapiens)
- MIC against M. catarrhalis (Moraxella catarrhalis; [1]): 50 µg/mL
- MIC against A. hydrophila (Aeromonas hydrophila; [1]): 12.5 µg/mL
- MIC against C. diversus (Citrobacter diversus; [1]): 25 µg/mL
- MIC against E. cloacae (Enterobacter cloacae; [1]): 25 µg/mL
- MIC (E. coli DH5α): 12.5 µg/mL
- MIC against P. aeruginosa (Pseudomonas aeruginosa; [1]): 12.5 µg/mL
- MIC against S. marcescens (Serratia marcescens; [1]): 25 µg/mL
- MIC against P. vulgaris (Proteus vulgaris; [1]): 12.5 µg/mL
- MIC against P. mirabilis (Proteus mirabilis; [1]): 25 µg/mL
- MIC against K. pneumonia (Klebsiella pneumonia; [1]): 50 µg/mL
- MIC against E. coli BL21 (E. coli BL21; [1]): 50 µg/mL

Substance: PRT459 (RTAKCEPACRHGGVCVRPNKCLCKKGYLGPQCE; listed as Homo sapiens)
- MIC against M. catarrhalis (Moraxella catarrhalis; [1]): 50 µg/mL
- MIC against A. hydrophila (Aeromonas hydrophila; [1]): 12.5 µg/mL
- MIC against C. diversus (Citrobacter diversus; [1]): 25 µg/mL
- MIC against E. cloacae (Enterobacter cloacae; [1]): 25 µg/mL
- MIC (E. coli DH5α): 25 µg/mL
- MIC against P. aeruginosa (Pseudomonas aeruginosa; [1]): 25 µg/mL
- MIC against S. marcescens (Serratia marcescens; [1]): 25 µg/mL
- MIC against P. vulgaris (Proteus vulgaris; [1]): 12.5 µg/mL
- MIC against P. mirabilis (Proteus mirabilis; [1]): 25 µg/mL
- MIC against K. pneumonia (Klebsiella pneumonia; [1]): 50 µg/mL
- MIC against E. coli BL21 (E. coli BL21; [1]): 12.5 µg/mL

Substance: PRT977 (EVDPCLAQPCQHGGTCRGYMGGYMCECLPGYNGDNCE; listed as Homo sapiens)
- MIC (Moraxella catarrhalis; M. catarrhalis, 10 h cultivation at 37° C.): 25 µg/mL
- MIC (Aeromonas hydrophila; A. hydrophila, 10 h cultivation at 37° C.): 25 µg/mL
- MIC (Citrobacter diversus; C. diversus, 10 h cultivation at 37° C.): 50 µg/mL
- MIC (Enterobacter cloacae; E. cloacae, 10 h cultivation at 37° C.): 12.5 µg/mL
- MIC (E. coli DH5α): 12.5 µg/mL
- MIC (Pseudomonas aeruginosa; P. aeruginosa, 10 h cultivation at 37° C.): 12.5 µg/mL
- MIC (Serratia marcescens; S. marcescens, 10 h cultivation at 37° C.): 25 µg/mL
- MIC (Proteus vulgaris; P. vulgaris, 10 h cultivation at 37° C.): 50 µg/mL
- MIC (Proteus mirabilis; P. mirabilis, 10 h cultivation at 37° C.): 12.5 µg/mL
- MIC (Klebsiella pneumonia; K. pneumonia, 10 h cultivation at 37° C.): 50 µg/mL
- MIC (E. coli BL21; E. coli BL21, 10 h cultivation at 37° C.): 50 µg/mL

Substance: PRT824 (YGPGCEQLCGCLNGGSCDAATGACRCPTGFLGTDCN; listed as Homo sapiens)
- MIC (μg/mL) M. catarrhalis (Moraxella catarrhalis; [12]): 25 µg/mL
- MIC (μg/mL) A. hydrophila (Aeromonas hydrophila; [13]): 25 µg/mL
- MIC (μg/mL) C. diversus (Citrobacter diversus; [14]): 50 µg/mL
- MIC (μg/mL) E. cloacae (Enterobacter cloacae; [15]): 12.5 µg/mL
- MIC (E. coli DH5α): 12.5 µg/mL
- MIC (μg/mL) P. aeruginosa (Pseudomonas aeruginosa; [16]): 50 µg/mL
- MIC (μg/mL) S. marcescens (Serratia marcescens; [17]): 25 µg/mL
- MIC (μg/mL) P. vulgaris (Proteus vulgaris; [18]): 50 µg/mL
- MIC (μg/mL) P. mirabilis (Proteus mirabilis; [19]): 12.5 µg/mL
- MIC (μg/mL) K. pneumonia (Klebsiella pneumonia; [20]): 25 µg/mL
- MIC (μg/mL) E. coli BL21 (E. coli BL21; [21]): 25 µg/mL

Substance: PRT831 (DGRHCVRRSPCANRNGSCMHRCQVVRGLARCECHVGYQLAADGKACE; listed as Homo sapiens)
- MIC (μg/mL) M. catarrhalis (Moraxella catarrhalis; [12]): 12.5 µg/mL
- MIC (μg/mL) A. hydrophila (Aeromonas hydrophila; [13]): 25 µg/mL
- MIC (μg/mL) C. diversus (Citrobacter diversus; [14]): 50 µg/mL
- MIC (μg/mL) E. cloacae (Enterobacter cloacae; [15]): 12.5 µg/mL
- MIC (E. coli DH5α): 25 µg/mL
- MIC (μg/mL) P. aeruginosa (Pseudomonas aeruginosa; [16]): 12.5 µg/mL
- MIC (μg/mL) S. marcescens (Serratia marcescens; [17]): 12.5 µg/mL
- MIC (μg/mL) P. vulgaris (Proteus vulgaris; [18]): 25 µg/mL
- MIC (μg/mL) P. mirabilis (Proteus mirabilis; [19]): 50 µg/mL
- MIC (μg/mL) K. pneumonia (Klebsiella pneumonia; [20]): 25 µg/mL
- MIC (μg/mL) E. coli BL21 (E. coli BL21; [21]): 25 µg/mL

Substance: PRT478 (ATQYCSRAQCHGHGRCVRRNPSASTFLHLSTNSFRLVPGHAPGEPQLRPVGELSWADIDH; listed as Homo sapiens)
- MIC against M. catarrhalis (Moraxella catarrhalis; [1]): 25 µg/mL
- MIC against A. hydrophila (Aeromonas hydrophila; [1]): 25 µg/mL
- MIC against C. diversus (Citrobacter diversus; [1]): 100 µg/mL
- MIC against E. cloacae (Enterobacter cloacae; [1]): 50 µg/mL
- MIC (E. coli DH5α): 50 µg/mL
- MIC against P. aeruginosa (Pseudomonas aeruginosa; [1]): 12.5 µg/mL
- MIC against S. marcescens (Serratia marcescens; [1]): 12.5 µg/mL
- MIC against P. vulgaris (Proteus vulgaris; [1]): 25 µg/mL
- MIC against P. mirabilis (Proteus mirabilis; [1]): 50 µg/mL
- MIC against K. pneumonia (Klebsiella pneumonia; [1]): 25 µg/mL
- MIC against E. coli BL21 (E. coli BL21; [1]): 25 µg/mL
